# Entries after “also recorded” stand apart in the source; their conditions may differ.
# Assays:
# [1] = biological target: T1, σ1R-NR1 C1 (Mus musculus, UniProt O55242); assay: In vitro σ1R-NR1 C1 association of recombinant proteins (Western blot); format: biochemical, murine; conditions: increasing concentrations; 30 min RT; vs control without ligand
# T1 construct: The coding region of the full-length murine σ1R (AF004927); GST (N, cleaved yes); made in house; host or cells: E. coli BL21 (KRX)
# T1 sequence (O55242 whole entry): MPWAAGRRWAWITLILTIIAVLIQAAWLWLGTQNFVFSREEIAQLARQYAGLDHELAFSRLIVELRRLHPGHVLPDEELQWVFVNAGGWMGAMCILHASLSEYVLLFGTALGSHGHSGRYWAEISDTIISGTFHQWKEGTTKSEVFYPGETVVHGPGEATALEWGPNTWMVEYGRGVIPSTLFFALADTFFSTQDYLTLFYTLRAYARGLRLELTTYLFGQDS
# Procedure: (§1) Figure 7 Effect of β-End 1–31, ^αN-acetyl β-End 1–31 and their N-terminal derivatives on σ1R-σ2R, σ1R-NR1 C1 and σ1R-BiP associations. Amino acid sequence of β-End 1–31 showing derivatives 1–26 and 1–27. (A) HaloLink-attached σ2Rs were incubated for 30 min at RT in the presence of σ1Rs (100 nM) in 300 μL of 50 mM Tris-HCl (pH 7.4), 0.2% CHAPS, and 2.5 mM CaCl2. After removing the unbound σ1R proteins, the effects of increasing the peptide concentrations on σ1R-σ2R associations were studied. At the end of the incubation, protein complexes bound to HaloLink-σ2R were obtained by centrifugation, washed three times, solubilized in 2× Laemmli buffer containing β-mercaptoethanol, resolved by SDS-PAGE, and analyzed by Western blotting (for more details, see Section 4). This protocol was also used to assess the effect of ligands on (B) σ1R-NR1 C1 and (C) σ1R-BiP associations. Data were compared to that of the control, which was obtained in the absence of ligands. (A–C) Data are the mean ± SD, n = 3. (D) The β-End 1–31 structural models were predicted by Novafold (DNASTAR Lasergene protein v.17, Inc., Madison, WI, USA). Ribbon model: The 3D structure, charge distribution and hydrophobicity map of β-End 1–31 are shown. Positive charges are shown in red and negative charges in blue. Polar surfaces are shown in yellow, and nonpolar surfaces are shown in orange. Linear model: the opioid (1–5) and flexible region (8–11) sequences are shown in green and orange, respectively, and the amphiphilic helix (15–25) is shown in pink.
# (§2) The recombinant σ1R (100 nM) was incubated either with Haloprotein (negative control) or together with the immobilized σ2R, NR1 C0-C1-C2 or BiP proteins in 300 µL of a buffer containing 50 mM Tris-HCl (pH 7.4) and 0.2% CHAPS in the presence of 2.5 mM CaCl2 for 30 min at RT. After removal of the unbound σ1R, the agarose-attached complexes were incubated for 30 min with rotation at RT in the presence of increasing concentrations of the ligands in a final reaction volume of 300 µL [50 mM Tris-HCl (pH 7.4), 2.5 mM CaCl2 and 0.2% CHAPS]. Ligands were usually dissolved in aqueous solutions; however, when an organic solvent such as DMSO was required to incorporate, e.g., pregnenolone sulfate, the solvent remained below 1% in the assay buffer. Agarose pellets containing the bound proteins were obtained by centrifugation, washed and resuspended thrice in the presence of 2.5 mM CaCl2, solubilized in 2× Laemmli buffer plus β-mercaptoethanol, and analyzed by Western blotting.
# (§3) Because all the assays were performed with recombinant proteins, the immune signals provided a single band of the expected size, which was used for the subsequent densitometry analysis. Accordingly, no other regions of the blots provided information and were routinely excluded from the analysis.
# Figure S8. Effect of the physiological and nonphysiological sequences of β-End 1-31 and classical σ1R ligands on BiP-σ1R, σ2R-σ1R and NR1 C1-σ1R associations . […]
# D) Agarose-NR1 C1 loaded with […]
# σ1Rs were incubated in the absence (control) and with nonphysiological derivatives of β-End 1-31. A-D) The σ1Rs that remained attached to the agarose complexes were evaluated by Western blotting. The […]
# (§4) (1 picture or pasted object on this page, not shown here)
# Figure S9. Effect of σ1R agonist/antagonist ligands on σ1R-NR1 C1 associations. Θ-Agarose-NR1 C1 was loaded with recombinant σ1Rs. After unbound σ1R proteins were removed, the complexes were incubated with (A) 1 nM β-End 1-31, (B) αN-acetyl β-End 1-31, (C-D) β-End 28-31 in the absence (black columns) and presence of (A) 10 nM or (B-D) increasing concentrations of competing σ1R ligands as indicated. The σ1Rs that remained attached to the Θ-σ2Rs were evaluated by Western blotting. The […]
# Prog is progesterone; PregSulfate is pregnenolone sulfate; Nac is […]
# [2] = biological target: T2, σ1R-BiP (Mus musculus, UniProt O55242); assay: In vitro σ1R-BiP association of recombinant proteins (Western blot); format: biochemical; conditions: for activity at σ1R-BiP against agonists / β-End 1–31: 1 nM β-End 1–31 with increasing competitor (Figure S10); for effect on σ1R-BiP association: increasing concentrations, 30 min RT, vs control without ligand
# T2 construct: The coding region of the full-length murine σ1R (AF004927); GST (N, cleaved yes); host or cells: E. coli BL21 (KRX) for σ1R
# T2 sequence (O55242 whole entry): as above
# Procedure: as §1, §2, §3
# Figure S8. Effect of the physiological and nonphysiological sequences of β-End 1-31 and classical σ1R ligands on BiP-σ1R, σ2R-σ1R and NR1 C1-σ1R associations . Agarose-BiP was loaded with σ1Rs, and after the unbound σ1Rs were removed, the agarose-BiP-σ1R complexes were incubated in the absence (control) and presence of increasing concentrations of (A) β-End 1-31 C-terminal physiological derivatives and (B) classical σ1R ligands. C) Agarose-σ2R loaded with σ1Rs was incubated in the absence (control) and with nonphysiological derivatives of β-End 1-31. D) Agarose-NR1 C1 loaded with σ1Rs were incubated in the absence (control) and with nonphysiological derivatives of β-End 1-31. A-D) The σ1Rs that remained attached to the agarose complexes were evaluated by Western blotting. The […]
# as §4
# Figure S10. Effect of σ1R agonist/antagonist ligands on σ1R-BiP associations. Agarose-attached BiP proteins were incubated for 30 min in the presence of recombinant σ1R (100 nM) proteins in 300 μL of 50 mM Tris-HCl (pH 7.4), 0.2% CHAPS, and 2.5 mM CaCl2. After the unbound σ1R proteins were […]
Compound,effect on σ1R-NR1 C1 association [1],activity at σ1R-BiP against agonists / β-End 1–31 [2],effect on σ1R-BiP association [2]
"KKGE [β-End 28–31, C-terminal tetrapeptide of β-End 1–31]",reduced σ1R-NR1 C1 interactions,neither exhibited activity at σ1R-BiP nor reduced the effect of β-End 1–31,weak direct effect on σ1R-BiP complexes
"β-End 6–31: β-End 1–31 lacking the N-terminal met-enkephalin 1–5 sequence (TSEKSQTPLVTLFKNAIIKNAYKKGE; Beta-endorphin; UniProt P01189 242-267, looked up, fragment)",began to separate the complex,,
"^αN-acetyl β-End 1–31: β-End 1–31 acetylated at N terminal Y1, α position",separated σ1Rs from NR1 C1 subunits at pM concentrations,neither exhibited activity at σ1R-BiP nor reduced the effect of β-End 1–31,weak at σ1R-BiP associations; also recorded: inactive
"β-End 1–27: β-End 1–31 derivative without 4 C-terminal residues (YGGFMTSEKSQTPLVTLFKNAIIKNAY; Beta-endorphin; UniProt P01189 237-263, looked up, fragment)",weak or no effects,,disrupted these complexes with potencies in the pM/nM range
"Br.Br.CN(C)CCN(C)CCc1ccc(Cl)c(Cl)c1 [BD1047, N′-[2-(3,4-dichlorophenyl)ethyl]-N,N,N′-trimethylethane-1,2-diamine;dihydrobromide, reference compound]",did the opposite,,did the opposite
"YKKGE [β-End 27–31, C-terminal pentapeptide of β-End 1–31]",increased σ1R-NR1 C1,,increased
"Cl.O=C(OCCN1CCOCC1)C1(c2ccccc2)CCCCC1 [PRE084, 2-(4-morpholinethyl)-1-phenylcyclohexanecarboxylate hydrochloride, reference compound]",increased σ1R-NR1 C1 complexes,,impaired σ1R associations with σ2R and BiP
"β-End 22–31: nonphysiological C-terminal sequence of β-End 1–31 (IIKNAYKKGE; Beta-endorphin; UniProt P01189 258-267, looked up, fragment)",persisted,,
"COC(=O)[C@]1(c2ccc(C)cc2)C[C@@H]1CN1CCC(O)(c2ccccc2)CC1 [PPCC, (1R,2S/1S,2R)-2-[4-hydroxy-4-phenylpiperidin-1-yl)methyl]-1-(4-methylphenyl) cyclopropanecarboxylate, reference compound]",increased σ1R-NR1 C1 complexes,,impaired σ1R associations with σ2R and BiP
"β-End 1–26: β-End 1–31 derivative without 5 C-terminal residues (YGGFMTSEKSQTPLVTLFKNAIIKNA; Beta-endorphin; UniProt P01189 237-262, looked up, fragment)",promoted σ1R-NR1 C1 associations at pM concentrations,,disrupted these complexes with potencies in the pM/nM range
Cc1cc(OCCN2CCOCC2)nn1-c1ccc2ccccc2c1 [S1RA],did the opposite,,did the opposite
